Experimental data reported in EPA's ToxValDB 9.5 (doi:10.2903/j.efsa.2020.5986).

How the values were obtained:
[1] = test system: Apis mellifera; conditions: acute, mortality
[2] = test system: Colinus virginianus; conditions: oral
[3] = test system: Danio rerio; conditions: subchronic; duration: 30 days; growth
[4] = test system: Daphnia magna; conditions: chronic/long-term; duration: 21 days; reproduction
[5] = test system: Hypoaspis aculeifer; conditions: acute; duration: 14 days; mortality
[6] = test system: Oncorhynchus mykiss; conditions: acute; duration: 96 hours; mortality
[7] = test system: Rattus norvegicus; conditions: acute; oral; mortality
[8] = test system: Tagia sp.; conditions: chronic/long-term; mortality

CC(C)=CCC/C(C)=C/CC/C(C)=C/CO [Farnesol]
LD50 ([1]; dermal): > 100 µg/piece | LD50 ([1]; oral, unspecified): > 100 µg/piece | LD50 ([2]; acute, mortality): > 2000 mg/kg-day | NOEC ([2]; reproduction developmental, diet): ≥ 111 mg/kg-day | NOEC [3]: ≥ 0.138 mg/L | NOEC [4]: 3 mg/L | NOEC [5]: 1000 mg/kg | LC50 [6]: > 0.134 µg/mL | LC50 [7]: > 2000 mg/kg-day | NOEC [8]: ≥ 1000 mg/kg
